# From patent publication US20110269763A1, “CRTH2 receptor ligands for medicinal uses” (7TM Pharma A/S, priority 2004, published 2011)
# Columns and labels:
# [1] = molecular target: T1, human CRTH2 (Homo sapiens, UniProt Q9Y5Y4, V204A); assay: Functional antagonist BRET assay on HEK293 cells stably expressing human CRTH2-Rluc and GFP2-β-arr2; assay type: cell-based; design: expressed in transfected cells; details: BRET, antagonist incubated 15 minutes prior to agonist; read-out: Antag. IC50
# T1 sequence (Q9Y5Y4 1-395 V204A): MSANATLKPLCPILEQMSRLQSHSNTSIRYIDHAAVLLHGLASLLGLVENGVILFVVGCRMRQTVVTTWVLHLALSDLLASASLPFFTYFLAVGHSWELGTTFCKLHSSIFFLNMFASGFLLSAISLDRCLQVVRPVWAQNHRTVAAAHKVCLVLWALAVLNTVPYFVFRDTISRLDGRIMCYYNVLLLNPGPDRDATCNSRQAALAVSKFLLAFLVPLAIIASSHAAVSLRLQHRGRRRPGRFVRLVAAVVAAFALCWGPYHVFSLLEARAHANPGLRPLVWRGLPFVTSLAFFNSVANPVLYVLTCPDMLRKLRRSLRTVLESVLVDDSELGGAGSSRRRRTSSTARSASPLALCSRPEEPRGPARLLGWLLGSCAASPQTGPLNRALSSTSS
# From the text: (§1) Generation/origin of the cDNA Constructs. The coding sequence of the human CRTH2 receptor (genbank accession no NM_004778) was amplified by PCR from a human hippocampus cDNA library and inserted into the pcDNA3.1(+) expression vector (invitrogen) via 5′ HindIII and 3′ EcoRI. To generate a CRTH2-Renilla luciferase (CRTH2-Rluc) fusion protein, the CRTH2 coding sequence without a STOP codon and Rluc were amplified, fused in frame by PCR and subcloned into the pcDNA3.1(+)Zeo expression vector (invitrogen). Human β-arrestin2 (β-arr2) N-terminally tagged with GFP^2 (βarr2-GFP^2) and Renilla luciferase were purchased from BioSignal Packard Inc, (Montreal, Canada). The sequence identity of the construct was verified by restriction endonuclease digests and sequencing in both directions on an ABI Prism (Applied Biosystems, Foster City, Calif.).
# (§2) Cell Culture and Transfection. COS-7 cells were grown in Dulbecco's modified Eagle's medium (DMEM) 1885 supplemented with 10% fetal bovine serum, 100 units/ml penicillin, […] streptomycin, and kept at 37° C. in a 10% CO2 atmosphere. HEK293 cells were maintained in Minimum Essential medium (MEM) supplemented with 10% (v/v) heat inactivated fetal calf serum (HIFCS), 2 mM Glutamax™-I, 1% non essential amino acids (NEAA), 1% sodium pyruvate and 10 μg/ml gentamicin. For binding experiments, COS7 cells were transiently transfected with the CRTH2 receptor using a calcium phosphate-DNA coprecipitation method with the addition of chloroquine (as described by Holst et al., 2001↓). To perform the functional Bioluminescence Resonance Energy Transfer (BRET) assays, a HEK293 cell clone stably expressing βarr2-GFP^2 and CRTH2-Rluc was generated (CRTH2-HEK293 cells).
# BRET assay. Functional BRET assays were performed on HEK293 cells stably expressing human CRTH2-Rluc and GFP^2-β-arr2. Prior to their use in the BRET assay cells were detached and re-suspended in D-PBS with 1000 mg/L L-Glucose at a density of 2×10^6 cells/mL. DeepBlueC™ was diluted to 50 μM in D-PBS with 1000 mg/L L-Glucose (light sensitive). 100 μL of cell suspension was transferred to wells in a 96-well microplate (white OptiPlate) and placed in the Mithras LB 940 instrument (BERTHOLD TECHNOLOGIES, Bad Wildbad, Germany). 12 μL/well agonist was then injected by injector 1 and 10 μL/well DeepBlueC™ was injected simultaneously by injector 2. Five seconds after the injections the light output from the well was measured sequentially at 400 nm and 515 nm, and the BRET signal (mBRET ratio) was calculated by the ratio of the fluorescence emitted by GFP^2-β-arr2 (515 nm) over the light emitted by the receptor-Rluc (400 nm). Antagonists were added before placing the microplates into the Mithras LB 940 and allowed to incubate for 15 minutes prior to the addition of agonist and DeepBlueC™. Compounds were dissolved in DMSO and the final DMSO concentration was kept constant at 1% in the assay.
# (§3) Curve analysis was performed with the GraphPadPrism software 3.0 (Graphpad Prism Inc., San Diego, USA) and IC50 values were calculated as a measure of the antagonistic potencies.
# [2] = molecular target: T1, human CRTH2; assay: Receptor binding assay: [3H]PGD2 competition binding on whole COS-7 cells transiently transfected with CRTH2 (also stable HEK293 cells); design: expressed in transfected cells; host or cells: COS-7 (transient, calcium phosphate); details: competition with 0.1 nM [3H]PGD2, whole cells, 3 h at 4° C.
# From the text: as §1, §2
# Binding assay. 24 h after transfection COS-7 cells were seeded into 96 well plates at a density of 30.000 cells/well. Competition binding experiments on whole cells were then performed about 18-24 h later using 0.1 nM [^3H]PGD2 (NEN, 172 Ci/mmol) in a binding buffer consisting of HBSS (GIBCO) and 10 mM HEPES. Competing ligands were diluted in DMSO which was kept constant at 1% (v/v) of the final incubation volume. Total and nonspecific binding were determined in the absence and presence of 10 μM PGD2. Binding reactions were routinely conducted for 3 h at 4° C. and terminated by 2 washes (100 μl each) with ice cold binding buffer. Radioactivity was determined by liquid scintillation counting in a TOPCOUNTER (Packard) following over night incubation in Microscint 20. Stable HEK293 cells were seeded at a density of 30.000 cells/well 18-24 h prior to the binding assay which was performed essentially as described for COS7 cells above. Determinations were made in duplicates.
# as §3
Compound,IC50 [1],IC50 [2]
"CSc1ccccc1-n1cc(C(=O)c2cc(Br)ccc2OCC(=O)O)cn1 [D44, {4-Bromo-2-[1-(2-methylthiophenyl)-1H-pyrazole-4-carbonyl]phenoxy}acetic acid]",< 500 nM,< 500 nM
"CC(Oc1ccc(Br)cc1C(=O)c1cnn(-c2ccccc2Oc2ccccc2)c1)C(=O)O (centres unmarked) [D47, 2-{4-Bromo-2-[1-(2-phenoxyphenyl)-1H-pyrazole-4-carbonyl]phenoxy}propionic acid]",< 500 nM,< 500 nM
"O=C(O)COc1ccc(Br)cc1C(=O)c1cnn(-c2ccccc2OC(F)(F)F)c1 [D52, {4-Bromo-2-[1-(2-trifluoromethoxyphenyl)-1H-pyrazole-4-carbonyl]phenoxy}acetic acid]",< 500 nM,< 500 nM
"CCc1ccc(OCC(=O)O)c(C(=O)c2cnn(-c3c(Cl)cccc3Cl)c2)c1 [D53, {2-[1-(2,6-Dichlorophenyl)-1H-pyrazole-4-carbonyl]-4-ethylphenoxy}acetic acid]",< 500 nM,< 500 nM
"O=C(O)COc1ccc(Br)cc1C(=O)c1cnn(Cc2ccccc2)c1 [D56, [2-(1-Benzyl-1H-pyrazole-4-carbonyl)-4-bromophenoxy]acetic acid]",< 500 nM,< 500 nM
"CC(Oc1ccc(Br)cc1C(=O)c1cnn(Cc2ccccc2)c1)C(=O)O (centres unmarked) [D57, 2-[2-(1-Benzyl-1H-pyrazole-4-carbonyl)-4-bromophenoxy]propionic acid]",< 500 nM,< 500 nM
"O=C(O)COc1ccc(Br)cc1C(=O)c1cnn(-c2cc(Cl)ccc2Cl)c1 [D59, {4-Bromo-2-[1-(2,5-dichlorophenyl)-1H-pyrazole-4-carbonyl]phenoxy}acetic acid]",< 500 nM,< 500 nM
"COc1ccccc1-n1cc(C(=O)c2cc(Br)ccc2OCC(=O)O)cn1 [D60, {4-Bromo-2-[1-(2-methoxyphenyl)-1H-pyrazole-4-carbonyl]phenoxy}acetic acid]",< 500 nM,< 500 nM
"O=C(O)COc1ccc(Br)cc1C(=O)c1cnn(-c2ccc(Cl)c(Cl)c2)c1 [D61, {4-Bromo-2-[1-(3,4-dichlorophenyl)-1H-pyrazole-4-carbonyl]phenoxy}acetic acid]",< 500 nM,< 500 nM
"Nc1ccc(OCC(=O)O)c(C(=O)c2cnn(-c3ccccc3)c2)c1 [D66, [4-Amino-2-(1-phenyl-1H-pyrazole-4-carbonyl)phenoxy]acetic acid]",< 500 nM,500 to 5000 nM
"CC(Oc1ccc(Br)cc1C(=O)c1cnn(-c2c(Cl)cc(Cl)cc2Cl)c1)C(=O)O (centres unmarked) [D68, 2-{4-Bromo-2-[1-(2,4,6-trichlorophenyl)-1H-pyrazole-4-carbonyl]phenoxy}propionic acid]",< 500 nM,< 500 nM

# The remaining lines, values ahead:
IC50 [1],IC50 [2],Compound
< 500 nM,< 500 nM,"Cc1ccc(-n2cc(C(=O)c3cc(Br)ccc3OCC(=O)O)cn2)c(Br)c1 [D45, {4-Bromo-2-[1-(2-bromo-4-methylphenyl)-1H-pyrazole-4-carbonyl]phenoxy}acetic acid]"
< 500 nM,< 500 nM,"CCc1cc(Br)ccc1-n1cc(C(=O)c2cc(Br)ccc2OC(C)C(=O)O)cn1 (centres unmarked) [D46, 2-{4-Bromo-2-[1-(4-bromo-2-ethylphenyl)-1H-pyrazole-4-carbonyl]phenoxy}propionic acid]"
< 500 nM,< 500 nM,"CCOc1ccccc1-n1cc(C(=O)c2cc(Br)ccc2OC(C)C(=O)O)cn1 (centres unmarked) [D48, 2-{4-Bromo-2-[1-(2-ethoxyphenyl)-1H-pyrazole-4-carbonyl]phenoxy}propionic acid]"
< 500 nM,< 500 nM,"CSc1ccccc1-n1cc(C(=O)c2cc(Br)ccc2OC(C)C(=O)O)cn1 (centres unmarked) [D49, 2-{4-Bromo-2-[1-(2-methylthio)-1H-pyrazole-4-carbonyl]phenoxy}propionic acid]"
< 500 nM,< 500 nM,"Cc1ccc(-n2cc(C(=O)c3cc(Br)ccc3OC(C)C(=O)O)cn2)c(Br)c1 (centres unmarked) [D50, 2-{4-Bromo-2-[1-(2-bromo-4-methylphenyl)-1H-pyrazole-4-carbonyl]phenoxy}propionic acid]"
< 500 nM,< 500 nM,"CC(Oc1ccc(Br)cc1C(=O)c1cnn(-c2ccc(Cl)cc2Cl)c1)C(=O)O (centres unmarked) [D51, 2-{4-Bromo-2-[1-(2,4-dichlorophenyl)-1H-pyrazole-4-carbonyl]phenoxy}propionic acid]"
< 500 nM,< 500 nM,"Cc1ccc(-n2cc(C(=O)c3cc(Br)ccc3OCC(=O)O)cn2)c(C)c1 [D54, {4-Bromo-2-[1-(2,4-dimethylphenyl)-1H-pyrazole-4-carbonyl]phenoxy}acetic acid]"
< 500 nM,< 500 nM,"Cc1ccc(-n2cc(C(=O)c3cc(Br)ccc3OC(C)C(=O)O)cn2)c(C)c1 (centres unmarked) [D55, 2-{4-Bromo-2-[1-(2,4-dimethylphenyl)-1H-pyrazole-4-carbonyl]phenoxy}propionic acid]"
< 500 nM,< 500 nM,"Cc1cc(Cl)ccc1-n1cc(C(=O)c2cc(Br)ccc2OCC(=O)O)cn1 [D58, {4-Bromo-2-[1-(4-chloro-2-methylphenyl)-1H-pyrazole-4-carbonyl]phenoxy}acetic acid]"
< 500 nM,< 500 nM,"Cc1cc(Cl)ccc1-n1cc(C(=O)c2cc(Br)ccc2OC(C)C(=O)O)cn1 (centres unmarked) [D62, 2-{4-Bromo-2-[1-(4-chloro-2-methylphenyl)-1H-pyrazole-4-carbonyl]phenoxy}propionic acid]"
< 500 nM,< 500 nM,"CC(Oc1ccc(Br)cc1C(=O)c1cnn(-c2cc(Cl)ccc2Cl)c1)C(=O)O (centres unmarked) [D63, 2-{4-Bromo-2-[1-(2,5-dichlorophenyl)-1H-pyrazole-4-carbonyl]phenoxy}propionic acid]"
< 500 nM,< 500 nM,"CC(Oc1ccc(Br)cc1C(=O)c1cnn(-c2ccc(Cl)c(Cl)c2)c1)C(=O)O (centres unmarked) [D64, 2-{4-Bromo-2-[1-(3,4-dichloro-phenyl)-1H-pyrazole-4-carbonyl]phenoxy}propionic acid]"
< 500 nM,< 500 nM,"COc1ccccc1-n1cc(C(=O)c2cc(Br)ccc2OC(C)C(=O)O)cn1 (centres unmarked) [D65, 2-{4-Bromo-2-[1-(2-methoxyphenyl)-1H-pyrazole-4-carbonyl]phenoxy}propionic acid]"
< 500 nM,< 500 nM,"CC(Oc1ccc(Br)cc1C(=O)c1cnn(-c2ccc(Br)cc2Br)c1)C(=O)O (centres unmarked) [D69, 2-{4-Bromo-2-[1-(2,4-dibromophenyl)-1H-pyrazole-4-carbonyl]phenoxy}propionic acid]"
